Test results: patent US7288541B2, “Propylcarbamate derivatives as inhibitors of serine and cysteine proteases” (SmithKline Beecham Corporation, priority 2001, dated 2007)
Like-named read-outs stand apart in the source and are kept apart here.

Columns and labels:
Type in all cases: biochemical
human cathepsin V = human cathepsin V (Homo sapiens, UniProt O60911); test: Cathepsin V inhibition, fluorogenic substrate Cbz-Phe-Arg-AMC, progress curve method; settings: Table 2, Inhibition of Cathepsins (Ki in nM); recombinant human enzyme, 2 μM substrate, pH 5.5; read-out: hCat V IC50
Protocol: (§1) All assays for cathepsin K were carried out with human and rat recombinant enzyme. Assays for cathepsins S & V were also carried out with human recombinant enzyme. Assays for human cathepsins B, H, and L were carried out with enzyme prepared from human liver tissue. Standard assay conditions for the determination of kinetic constants used a fluorogenic peptide substrate, typically (5S,8S)-13-amino-5-benzyl-13-imino-3-methylene-N-(4-methyl-2-oxo-2H-chromen-7-yl)-6-oxo-1-phenyl-2-oxa-4,7,12-triazatridecane-8-carboxamide (Cbz-Phe-Arg-AMC), and were determined in 100 mM sodium acetate at pH 5.5 containing 10 mM dithiothreitol and 120 mM sodium chloride. […]
(§2) All assays contained 10% dimethyl sulfoxide. […] Product fluorescence (excitation at 360 nm; emission at 440 nm, (except cathepsin H which used excitation at 340 nm; emission at 420 nm)) was monitored with a PerSeptive Biosystems Cytofluor II fluorescence plate reader. […]
(§3) Potential inhibitors were evaluated using the progress curve method. […] For those compounds whose progress curves were linear, the enzymatic activity (RATE) was plotted against the concentration of test compound, including inhibitor concentration of zero ([I]=0), and the IC50 determined from a fit of equation 1 to the data, RATE=Vmax/(1+([I]/IC50)) (1) where Vmax is the best fit estimate of the maximal enzymatic activity. […]

human cathepsin L = target: T1, human cathepsin L (Homo sapiens, UniProt P07711); test: Cathepsin L inhibition, fluorogenic substrate Cbz-Phe-Arg-AMC, progress curve method; settings: Table 2, Inhibition of Cathepsins (Ki in nM); enzyme from human liver tissue, 5 μM substrate, pH 5.5; read-out: hCat L IC50
T1 construct: enzyme prepared from human liver tissue; from tissue; host or cells: human liver
Protocol: as §1, §2, §3

human cathepsin K = target: T2, human cathepsin K (Homo sapiens, UniProt P43235); test: Cathepsin K inhibition, fluorogenic substrate Cbz-Phe-Arg-AMC, progress curve method; settings: recombinant human enzyme, 10 μM substrate, read-out: hCat K IC50
T2 construct: The proform of cathepsin K was converted to mature cathepsin K by brief exposure to pH 4; made in house; host or cells: baculovirus; Trichoplusia ni High Five cells (virus raised in Sf-9)
T2 sequence (P43235 115-329): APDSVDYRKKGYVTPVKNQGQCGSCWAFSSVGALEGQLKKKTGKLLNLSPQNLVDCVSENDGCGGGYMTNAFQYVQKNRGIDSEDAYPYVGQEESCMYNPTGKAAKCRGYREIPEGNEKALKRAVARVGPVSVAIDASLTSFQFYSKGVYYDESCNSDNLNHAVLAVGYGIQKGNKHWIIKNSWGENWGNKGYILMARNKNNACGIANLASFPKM
Protocol: All assays for cathepsin K were carried out with human and rat recombinant enzyme. Assays for cathepsins S & V were also carried out with human recombinant enzyme. Assays for human cathepsins B, H, and L were carried out with enzyme prepared from human liver tissue. […] A stock substrate solution of Cbz-Phe-Arg-AMC was prepared at a concentration of 50 mM in dimethyl sulfoxide. This substrate was diluted into the assay for a final substrate concentration of 10 μM in the rat cathepsin K, human cathepsin K, and human cathepsin B assays; a final substrate concentration of 5 μM in the human cathepsin L assay; and a final substrate concentration of 2 μM in the human cathepsin V assay.
All assays contained 10% dimethyl sulfoxide. […] All assays were conducted at 30° C. Product fluorescence (excitation at 360 nm; emission at 440 nm, (except cathepsin H which used excitation at 340 nm; emission at 420 nm)) was monitored with a PerSeptive Biosystems Cytofluor II fluorescence plate reader. Product progress curves were generated over 2.3 h monitoring the formation of 7-amino-4-methylcoumarin product (or β-naphthalamide for cathepsin H).
Human and Rat Cathepsin K:
The cells continued to grow for 72 h post-infection, before the virus was harvested by centrifugation at 1400×g for 30 min.
One and one-half liters of Trichoplusia ni (T. ni) High Five (TM) cells [JRH Biosciences, Woodland, Calif. […] The cells were grown for 24 h at 28° C., 50 RPM, and 50% dissolved oxygen. […] Media were separated from cells at a rate of 1 L/min using the Centritech 100 (TM) continuous-flow centrifuge (DuPont) operating at 200×g.
Protein Purification: Media (human and rat) were filtered through a Whatman 3 filter, and then loaded onto a 25 mL Poros HS II (26 mm×47 mm) cation exchange column equilibrated in 25 mM sodium acetate at pH 5.5 (equilibration buffer). The column was washed until the absorbance reached the baseline value, and then the protein was eluted with a linear gradient from 0–2 M sodium chloride in the equilibration buffer. Column fractions were analyzed by SDS-PAGE, N-terminal sequencing, and mass spectrometry. Fractions containing the proform of cathepsin K were pooled and frozen at −80° C. The proform was concentrated in an Amicon Centriprep 10 and fractionated with a Superdex 75 column (26 mm×600 mm, Pharmacia) equilibrated in 400 mM sodium chloride, 25 mM sodium acetate at pH 5.5.
Cathepsin K Activation: The proform of cathepsin K was converted to mature cathepsin K by brief exposure to pH 4 in the presence of 5 mM L-cysteine. Typically, 5 mM L-cysteine was added to 10 mL of approximately 1 mg/mL procathepsin K. One mL of this solution was diluted ten-fold into 450 mM sodium acetate at pH 4.0 containing 5 mM L-cysteine. This solution was reacted at 23° C. for 2 min before neutralization with 2 mL 1.8 M sodium acetate at pH 6.0. The neutralized sample was added to the remaining 9 mL of procathepsin K. The mixture was incubated at 4° C. for 2–3 days. The activated cathepsin K was chromatographed on a Poros HS II column as described above.
Potential inhibitors were evaluated using the progress curve method. Assays were carried out in the presence of variable concentrations of test compound. Reactions were initiated by addition of buffered solutions of inhibitor and substrate to enzyme. Data analysis was conducted according to one of two procedures depending on the appearance of the progress curves in the presence of inhibitors. […] Ki values were calculated from IC50 values using equation 2 assuming a competitive model.

human cathepsin B = target: T3, human cathepsin B (Homo sapiens, UniProt P07858); test: Cathepsin B inhibition, fluorogenic substrate Cbz-Phe-Arg-AMC, progress curve method; settings: Table 2, Inhibition of Cathepsins (Ki in nM); enzyme from human liver tissue, 10 μM substrate, pH 5.5; read-out: hCat B IC50
T3 construct: enzyme prepared from human liver tissue; from tissue; host or cells: human liver
Protocol: as §1, §2, §3

human cathepsin S = human cathepsin S (Homo sapiens, UniProt P25774); test: Cathepsin S inhibition, fluorogenic substrate Cbz-Val-Val-Arg-AMC, progress curve method; settings: Table 2, Inhibition of Cathepsins (Ki in nM); recombinant human enzyme, 10 μM substrate, pH 5.5; read-out: hCat S IC50
Protocol: as §1, §2, §3

[1] = Table 1, Inhibition of Cathepsin K (Ki in nM), pH 5.5, 30° C.
[2] = Table 2, Inhibition of Cathepsins (Ki in nM), pH 5.5

human cathepsin V, sequence (O60911 114-334): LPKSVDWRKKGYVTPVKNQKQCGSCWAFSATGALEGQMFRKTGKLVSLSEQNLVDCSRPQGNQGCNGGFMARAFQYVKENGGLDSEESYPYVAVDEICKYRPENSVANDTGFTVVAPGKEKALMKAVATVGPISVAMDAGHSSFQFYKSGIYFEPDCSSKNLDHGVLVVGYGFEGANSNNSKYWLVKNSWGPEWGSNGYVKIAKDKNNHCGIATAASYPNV
T1 sequence (P07711 114-288 limits assumed): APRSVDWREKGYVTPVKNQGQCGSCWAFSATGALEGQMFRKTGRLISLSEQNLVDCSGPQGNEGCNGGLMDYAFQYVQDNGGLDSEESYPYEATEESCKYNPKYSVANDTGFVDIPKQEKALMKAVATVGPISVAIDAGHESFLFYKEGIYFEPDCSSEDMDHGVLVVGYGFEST
T1 sequence (P07711 292-333 limits assumed): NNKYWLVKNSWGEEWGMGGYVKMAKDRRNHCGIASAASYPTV
human cathepsin S, sequence (P25774 115-331): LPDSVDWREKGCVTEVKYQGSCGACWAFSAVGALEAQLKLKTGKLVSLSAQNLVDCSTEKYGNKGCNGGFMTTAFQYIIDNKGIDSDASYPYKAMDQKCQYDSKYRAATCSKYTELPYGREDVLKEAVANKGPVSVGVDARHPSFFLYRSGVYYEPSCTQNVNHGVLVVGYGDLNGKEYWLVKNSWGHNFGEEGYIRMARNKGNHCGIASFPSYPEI

SMILES	IC50 (human cathepsin V) [nM]	IC50 (human cathepsin L) [nM]	IC50 (human cathepsin K; [1]) [nM]	IC50 (human cathepsin K; [2]) [nM]	IC50 (human cathepsin B) [nM]	IC50 (human cathepsin S) [nM]
C[C@H](NC(=O)O[C@H](Cn1cnc2cc(Cl)c(Cl)cc21)C(C)(C)C)C(=O)CNS(=O)(=O)c1ccccn1 [Example 16, (1S)-1-[(5,6-dichloro-1H-benzimidazol-1-yl)methyl]-2,2-dimethylpropyl (1S)-1-methyl-2-oxo-3-[(2-pyridinylsulfonyl)amino]propylcarbamate]	< 10	10 to 100	< 10	< 10	10 to 100	< 10
CCCC[C@H](NC(=O)O[C@@H]1CN(c2nc3ccccc3s2)CC1(C)C)C(=O)CNS(=O)(=O)c1ccccn1 [Example 6, (3S)-1-(1,3-benzothiazol-2-yl)-4,4-dimethylpyrrolidinyl (1S)-1-{[(2-pyridinylsulfonyl)amino]acetyl}pentylcarbamate]	100 to 1000	1000 to 10000	100 to 1000	100 to 1000	1000 to 10000	10 to 100
C[C@H](NC(=O)O[C@H](Cn1ccc(C(F)(F)F)n1)C(C)(C)C)C(=O)CNS(=O)(=O)c1ccccn1 [Example 8, (1S)-2,2-dimethyl-1-{[3-(trifluoromethyl)-1H-pyrazol-1-yl]methyl}propyl (1S)-1-methyl-2-oxo-3-[(2-pyridinylsulfonyl)amino]propylcarbamate]			100 to 1000			
CCCC[C@H](NC(=O)O[C@H](Cn1nccc1-c1ccc(C(F)(F)F)cc1)C(C)(C)C)C(=O)CNS(=O)(=O)c1ccccn1 [Example 12, (1S)-2,2-dimethyl-1-({5-[4-(trifluoromethyl)phenyl]-1H-pyrazol-1-yl}methyl)propyl (1S)-1-{[(2-pyridinylsulfonyl)amino]acetyl}pentylcarbamate]			10 to 100			
CCCC[C@H](NC(=O)O[C@H](c1nc2cc(C(F)(F)F)ccc2s1)C(C)(C)C)C(=O)CNS(=O)(=O)c1ccccn1 [Example 9, (1S)-2,2-dimethyl-1-[5-(trifluoromethyl)-1,3-benzothiazol-2-yl]propyl (1S)-1-{[(2-pyridinylsulfonyl)amino]acetyl}pentylcarbamate]			10 to 100			

Results, then the molecule that gave them:

IC50 (human cathepsin V) [nM]	IC50 (human cathepsin L) [nM]	IC50 (human cathepsin K; [1]) [nM]	IC50 (human cathepsin K; [2]) [nM]	IC50 (human cathepsin B) [nM]	IC50 (human cathepsin S) [nM]	SMILES
		< 10				CCCC[C@H](NC(=O)O[C@H](Cn1cnc(-c2ccc(C(F)(F)F)cc2)c1)C(C)(C)C)C(=O)CNS(=O)(=O)c1ccccn1 [Example 18, (1S)-2,2-dimethyl-1-({4-[4-(trifluoromethyl)phenyl]-1H-imidazol-1-yl}methyl)propyl (1S)-1-{[(2-pyridinylsulfonyl)amino]acetyl}pentylcarbamate]
		10 to 100				C[C@H](NC(=O)O[C@H](Cn1ccc(-c2ccc(C(F)(F)F)cc2)n1)C(C)(C)C)C(=O)CNS(=O)(=O)c1ccccn1 [Example 2, (1S)-2,2-dimethyl-1-({3-[4-(trifluoromethyl)phenyl]-1H-pyrazol-1-yl}methyl)propyl (1S)-1-methyl-2-oxo-3-[(2-pyridinylsulfonyl)amino]propylcarbamate]
		< 10				CC(C)(C)[C@@H](Cn1cnc2cc(Cl)c(Cl)cc21)OC(=O)NCC(=O)CNS(=O)(=O)c1ccccn1 [Example 17, (1S)-1-[(5,6-dichloro-1H-benzimidazol-1-yl)methyl]-2,2-dimethylpropyl 2-oxo-3-[(2-pyridinylsulfonyl)amino]propylcarbamate]
